Experimental data: patent US20250059162A1, “MULTI-PROTEIN DEGRADATION AGENT HAVING IMIDE SKELETON” (SUZHOU KINTOR PHARMACEUTICALS, INC., priority 2021, published 2025)

Test system: HL60 cells
Assay: Anti-proliferation on HL60 cells (CellTiter-Glo, 3 days)
Assay type: cell-based
Conditions: Homo sapiens, HL-60, 72 h, 3 days incubation, CTG luminescence, IC50 by XLfit, read-out: HL60 cells Proliferation inhibitory activity
Experimental: HL60 cells (Cell Bank of Chinese Academy of Sciences) in the logarithmic growth phase were counted and plated evenly in a 96-well transparent bottom white plate at 20000 cells per well and 100 μL per well.
A certain amount of the compound of the present invention was weighed and diluted with DMSO to a 10 mM stock solution. The culture medium RPMI-1640 (meilunbio, MA0215) corresponding to the cells were taken, and the compound was diluted to the concentration required by the test, shaken gently and mixed evenly. 50 μL of the gradient dilution of the diluted compound was added to each well of the plated cells, and 50 μL of 0.1% DMSO was added to the control group. The plate was shaken gently, mixed evenly and incubated in a cell culture incubator for 3 days.
• 3.1 The CellTiter-Glo™ (CTG) (purchased from Promega, Cat. No. G9242) reagent was taken in advance from the −20° C. refrigerator and equilibrated to room temperature in the dark. Cell Titer-Glo buffer and Cell Titer-Glo substrate were mixed at a ratio of 1:1 to prepare a CTG detection reagent. • 3.2 The 96-well plate was taken out and inspected under a microscope for growth. • 3.3 The bottom of the 96-well plate was tagged with white paper, and then the plate was wrapped with tin foil paper, shaken at 37° C. at 300 r for 10 min and mixed evenly. • 3.4. 50 μL of CTG detection reagent was added to each well, Luminescence signal was detected using a microplate reader Biotek Synergy Hi, and the inhibition rate was calculated. IC50 values of the compounds were calculated by XLfit 5.5.0 software to evaluate the proliferation inhibitory activity on HL60 cells.

Compound	IC50 [nM]
O=C1CCC(N2Cc3cc(CNCC4CCN(c5ncc(-c6cccc(OC(F)(F)F)c6)cc5C(F)(F)F)CC4)ccc3C2=O)C(=O)N1 (centres unmarked) [Compound A96]	1.8
O=C1CCC(N2Cc3cc(NC(=O)CC4CCN(c5ccc(-c6cccc(Cl)c6)cn5)CC4)ccc3C2=O)C(=O)N1 (centres unmarked) [Compound A56]	< 0.2
O=C1CCC(N2Cc3cc(NC(=O)CC4CCN(c5cnc(-c6cccc7ccccc67)s5)CC4)ccc3C2=O)C(=O)N1 (centres unmarked) [Compound A25]	0.3
O=C1CCC(N2Cc3cc(C(=O)NCC4CCN(c5cncc(-c6cccc7ccccc67)c5)CC4)ccc3C2=O)C(=O)N1 (centres unmarked) [Compound A18]	5.5
O=C1CCC(N2Cc3cc(C(=O)NCC4CCN(c5ccc(-c6cccc7cccnc67)cn5)CC4)ccc3C2=O)C(=O)N1 (centres unmarked) [Compound A42]	0.2
O=C1CCC(N2Cc3cc(C(=O)NCC4CCN(c5ccc(-c6cccc7ccccc67)cn5)CC4)ccc3C2=O)C(=O)N1 (centres unmarked) [Compound A34]	< 0.2
O=C1CCC(N2Cc3cc(C(=O)NCC4CCN(c5nccc(-c6cccc7ccccc67)n5)CC4)ccc3C2=O)C(=O)N1 (centres unmarked) [Compound A12]	4.5
O=C1CCC(N2Cc3cc(NC(=O)CC4CCN(c5ncc(-c6ccncc6)cn5)CC4)ccc3C2=O)C(=O)N1 (centres unmarked) [Compound A60]	60
O=C1CCC(N2Cc3cc(NC(=O)CC4CCN(C(=O)NCc5cccc6ccccc56)CC4)ccc3C2=O)C(=O)N1 (centres unmarked) [Compound A1]	190
O=C(CN1CCC(CC(=O)Nc2ccc3c(c2)CN(C2CCC(=O)NC2=O)C3=O)CC1)NCCc1cccc2ccccc12 (centres unmarked) [Compound A10]	7.4
O=C1CCC(N2Cc3cc(NC(=O)CC4CCN(c5ncc(-c6ccc(Cl)cc6)cn5)CC4)ccc3C2=O)C(=O)N1 (centres unmarked) [Compound A55]	< 0.2
O=C1CCC(N2Cc3cc(CNCC4CCN(c5ncc(-c6cccc(Cl)c6)cc5[N+](=O)[O-])CC4)ccc3C2=O)C(=O)N1 (centres unmarked) [Compound A78]	3
O=C1CCC(N2Cc3cc(NC(=O)CC4CCN(c5ccc(-c6cccc(C(F)(F)F)c6)cn5)CC4)ccc3C2=O)C(=O)N1 (centres unmarked) [Compound A58]	< 0.2
Cc1cc(-c2cccc(Cl)c2)cnc1N1CCC(CNCc2ccc3c(c2)CN(C2CCC(=O)NC2=O)C3=O)CC1 (centres unmarked) [Compound A76]	< 0.2
O=C1CCC(N2Cc3cc(NC(=O)CC4CCN(c5ncc(Br)cn5)CC4)ccc3C2=O)C(=O)N1 (centres unmarked) [Compound A48]	4.1
O=C1CCC(N2Cc3cc(CNCC4(F)CCN(c5ncc(-c6cccc(Cl)c6)cc5F)CC4)ccc3C2=O)C(=O)N1 (centres unmarked) [Compound A84]	2.6
O=C1CCC(N2Cc3cc(C(=O)NCC4CCN(c5ccc(-c6cccc7ccccc67)nc5)CC4)ccc3C2=O)C(=O)N1 (centres unmarked) [Compound A36]	0.3
O=C1CCC(N2Cc3cc(NC(=O)CC4CCN(CC(=O)N5CCCc6ccccc65)CC4)ccc3C2=O)C(=O)N1 (centres unmarked) [Compound A3]	7.9
O=C1CCC(N2Cc3cc(NC(=O)CC4CCN(c5ccc(-c6nccc7ccccc67)cn5)CC4)ccc3C2=O)C(=O)N1 (centres unmarked) [Compound A46]	< 0.2
O=C1CCC(N2Cc3cc(C(=O)NCC4CCN(c5ccnc(-c6cccc7ccccc67)n5)CC4)ccc3C2=O)C(=O)N1 (centres unmarked) [Compound A20]	21
O=C1CCC(N2Cc3cc(NC(=O)CC4CCN(c5nccc(-c6cccc7ccccc67)n5)CC4)ccc3C2=O)C(=O)N1 (centres unmarked) [Compound A13]	6.4
O=C1CCC(N2Cc3cc(NC(=O)CC4CCN(c5ncc(-c6ccccn6)cn5)CC4)ccc3C2=O)C(=O)N1 (centres unmarked) [Compound A59]	0.7
O=C1CCC(N2Cc3cc(NC(=O)CC4CCN(c5ncc(-c6ccccc6Cl)cn5)CC4)ccc3C2=O)C(=O)N1 (centres unmarked) [Compound A54]	< 0.2
N#CC1(CNCc2ccc3c(c2)CN(C2CCC(=O)NC2=O)C3=O)CCN(c2ncc(-c3cccc(Cl)c3)cc2C(F)(F)F)CC1 (centres unmarked) [Compound A89]	9.2
O=C1CCC(N2Cc3cc(NC(=O)CC4CCN(c5cnc(-c6cccc7ccccc67)cn5)CC4)ccc3C2=O)C(=O)N1 (centres unmarked) [Compound A31]	< 0.2
CN(C)c1cc(-c2cccc(Cl)c2)cnc1N1CCC(CNCc2ccc3c(c2)CN(C2CCC(=O)NC2=O)C3=O)CC1 (centres unmarked) [Compound A79]	< 0.2
O=C1CCC(N2Cc3cc(NC(=O)CC4CCN(c5cccc(-c6cccc7ccccc67)c5)CC4)ccc3C2=O)C(=O)N1 (centres unmarked) [Compound A22]	4
CC(C)c1cnc(N2CCC(CC(=O)Nc3ccc4c(c3)CN(C3CCC(=O)NC3=O)C4=O)CC2)nc1 (centres unmarked) [Compound A50]	0.6
O=C1CCC(N2Cc3cc(C(=O)NCC4CCN(c5ncc(-c6cccc7ccccc67)s5)CC4)ccc3C2=O)C(=O)N1 (centres unmarked) [Compound A23]	0.2

More lines, now with the values ahead:

IC50 [nM]	Compound
3920	O=C1CCC(N2C(=O)c3cccc4c(CNCC5CCN(c6ncc(-c7cccc(Cl)c7)cc6C(F)(F)F)CC5)ccc2c34)C(=O)N1 (centres unmarked) [Compound A174]
109	O=C1CCC(n2cc(-c3ccc(CNCC4CCN(c5ncc(-c6cccc(Cl)c6)cc5C(F)(F)F)CC4)cc3)nn2)C(=O)N1 (centres unmarked) [Compound A168]
11500	O=C1CCC(N2C(=O)c3cccc4c(CNCC5CCN(c6ncc(-c7cccc(F)c7)cc6F)CC5)ccc2c34)C(=O)N1 (centres unmarked) [Compound A175]
687	Cc1nc2ccc(CNCC3CCN(c4ncc(-c5cccc(Cl)c5)cc4C(F)(F)F)CC3)cc2c(=O)n1C1CCC(=O)NC1=O (centres unmarked) [Compound A151]
160	O=C1CCC(N2Cc3nc(CNCC4CCN(c5ncc(-c6cccc(Cl)c6)cc5C(F)(F)F)CC4)ccc3C2=O)C(=O)N1 (centres unmarked) [Compound A141]
1100	O=C1CCC(N2C(=O)c3cc4c(cc3C2=O)CN(CC2CCN(c3ncc(-c5cccc(Cl)c5)cc3C(F)(F)F)CC2)C4)C(=O)N1 (centres unmarked) [Compound A138]
4350	Cn1nc(N2CCC(=O)NC2=O)c2ccc(CNCC3CCN(c4ncc(-c5cccc(Cl)c5)cc4C(F)(F)F)CC3)cc21 [Compound A177]
9580	O=C1CCC(NC(=O)Cc2ccc(CNCC3CCN(c4ncc(-c5cccc(Cl)c5)cc4C(F)(F)F)CC3)cc2)C(=O)N1 (centres unmarked) [Compound A167]
6.7	O=C1CC[C@@H](N2Cc3cc(CNCC4CCN(c5ncc(-c6cccc(F)c6)cc5F)CC4)ccc3C2=O)C(=O)N1 [Compound A126]
2.48	O=C1CC[C@H](N2Cc3cc(CNCC4CCN(c5ncc(-c6cccc(F)c6)cc5F)CC4)ccc3C2=O)C(=O)N1 [Compound A125]
6.75	O=C1CC[C@H](N2Cc3cc(CNCC4(F)CCN(c5ncc(-c6cccc(Cl)c6)cc5C(F)(F)F)CC4)ccc3C2=O)C(=O)N1 [Compound A127]
11	Cc1cc(Cl)cc(-c2cnc(N3CCC(CNCc4ccc5c(c4)CN(C4CCC(=O)NC4=O)C5=O)CC3)c(C(F)(F)F)c2)c1 (centres unmarked) [Compound A114]
3.97	O=C1CCC(N2Cc3cc(CNCC4CCN(c5ncc(-c6cccc(Cl)c6)cc5C(F)F)CC4)ccc3C2=O)C(=O)N1 (centres unmarked) [Compound A118]
1740	O=C1CCC(c2coc3cc(CNCC4CCN(c5ncc(-c6cccc(Cl)c6)cc5C(F)(F)F)CC4)ccc23)C(=O)N1 (centres unmarked) [Compound A149]
0.4	CN(C)c1cccc(-c2cnc(N3CCC(CNCc4ccc5c(c4)CN(C4CCC(=O)NC4=O)C5=O)CC3)c(C(F)(F)F)c2)c1 (centres unmarked) [Compound A97]
9860	O=C1C[C@H](N2Cc3cc(CNCC4CCN(c5ncc(-c6cccc(F)c6)cc5F)CC4)ccc3C2=O)C(=O)N1 [Compound A170]
1570	O=C1C[C@@H](N2Cc3cc(CNCC4CCN(c5ncc(-c6cccc(Cl)c6)cc5C(F)(F)F)CC4)ccc3C2=O)C(=O)N1 [Compound A171]
< 3.04	Cc1cccc(-c2cnc(N3CCC(CNCc4ccc5c(c4)CN([C@H]4CCC(=O)NC4=O)C5=O)CC3)c(C(F)(F)F)c2)c1 [Compound A123]
12	O=C(CC1CCN(c2ncc(-c3cccc4ccccc34)cn2)CC1)Nc1ccc2c(c1)CN(C1CCC(=O)N(COP(=O)(O)O)C1=O)C2=O (centres unmarked) [Compound A117]
7320	Cc1nc2cc(CNCC3CCN(c4ncc(-c5cccc(Cl)c5)cc4C(F)(F)F)CC3)ccc2c(=O)n1C1CCC(=O)NC1=O (centres unmarked) [Compound A152]
6700	O=C1CCC(NC(=O)c2ccc(CNCC3CCN(c4ncc(-c5cccc(Cl)c5)cc4C(F)(F)F)CC3)c(F)c2)C(=O)N1 (centres unmarked) [Compound A159]
397	O=C1CCC(N2Cc3cc(CNCC4CCN(c5ncc(-c6cccc(Cl)c6)cc5C(F)(F)F)CC4)ncc3C2=O)C(=O)N1 (centres unmarked) [Compound A142]
1.2	NC(=O)c1cc(-c2cccc(Cl)c2)cnc1N1CCC(CNCc2ccc3c(c2)CN(C2CCC(=O)NC2=O)C3=O)CC1 (centres unmarked) [Compound A99]
3360	O=C1CCC(c2coc3ccc(CNCC4CCN(c5ncc(-c6cccc(Cl)c6)cc5C(F)(F)F)CC4)cc23)C(=O)N1 (centres unmarked) [Compound A150]
11200	COc1cc(CNCC2CCN(c3ncc(-c4cccc(Cl)c4)cc3C(F)(F)F)CC2)ccc1C(=O)NC1CCC(=O)NC1=O (centres unmarked) [Compound A161]
116	O=C1CCC(n2nnc3ccc(CNCC4CCN(c5ncc(-c6cccc(Cl)c6)cc5C(F)(F)F)CC4)cc3c2=O)C(=O)N1 (centres unmarked) [Compound A154]
8.37	COc1cccc(-c2cnc(N3CCC(CCNc4ccc5c(c4)CN(C4CCC(=O)NC4=O)C5=O)CC3)c(C(F)(F)F)c2)c1 (centres unmarked) [Compound A132]
